From US12692254B2, “Benzimidazole inhibitors of PAD enzymes” (BRISTOL-MYERS SQUIBB COMPANY, priority 2018, dated 2026)

target: human PAD4 (hPAD4) (Homo sapiens, UniProt Q9UM07); test: RFMS human PAD4 functional assay (rapid-fire mass spectrum); format: biochemical; details: 5 nM hPAD4 enzyme, 250 μM BAEE, 50 μM Calcium; 30 min preincubation, 90 min reaction at 37° C.
In short: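 PAD4 (10 nM) preincubated 30 min with compound (top final 50 μM), then BAEE substrate added in pH 7.5 HEPES buffer with DTT, 50 μM calcium, TPEN; 90 min at 37° C. After TCA quench, citrulline derivatized with phenyl glyoxal (4 mM final, 30 min, 37° C) and quantified by RapidFire MS against internal standard.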

human PAD4 (hPAD4), sequence (Q9UM07 whole entry): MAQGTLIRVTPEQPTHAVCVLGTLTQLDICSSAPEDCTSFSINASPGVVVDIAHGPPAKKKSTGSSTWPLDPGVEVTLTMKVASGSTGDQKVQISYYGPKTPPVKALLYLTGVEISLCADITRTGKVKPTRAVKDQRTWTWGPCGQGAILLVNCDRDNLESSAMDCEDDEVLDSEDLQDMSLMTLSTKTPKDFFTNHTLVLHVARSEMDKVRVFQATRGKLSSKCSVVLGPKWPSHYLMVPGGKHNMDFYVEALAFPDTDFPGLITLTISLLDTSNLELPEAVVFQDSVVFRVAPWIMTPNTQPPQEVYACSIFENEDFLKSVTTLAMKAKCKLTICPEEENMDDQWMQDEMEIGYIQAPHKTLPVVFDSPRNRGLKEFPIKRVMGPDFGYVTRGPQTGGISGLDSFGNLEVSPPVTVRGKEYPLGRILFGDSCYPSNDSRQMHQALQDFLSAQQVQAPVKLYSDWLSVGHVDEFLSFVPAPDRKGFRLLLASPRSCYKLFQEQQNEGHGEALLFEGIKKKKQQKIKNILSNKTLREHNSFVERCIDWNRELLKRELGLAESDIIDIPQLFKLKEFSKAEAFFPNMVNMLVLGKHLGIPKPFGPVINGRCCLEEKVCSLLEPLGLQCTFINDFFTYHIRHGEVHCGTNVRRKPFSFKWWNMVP

| SMILES | IC50 |
| --- | --- |
| COc1cc(C(=O)N2C[C@H](N)C[C@@H](F)C2)cc2nc(-c3cc4cccnc4n3CC3CC3)n(Cc3cc(C)nn3C)c12 [Example 515, (3R,5R)-1-{2-[1-(cyclopropylmethyl)-1H-pyrrolo[2,3-b]pyridin-2-yl]-1-[(1,3-dimethyl-1H-pyrazol-5-yl)methyl]-7-methoxy-1H-1,3-benzodiazole-5-carbonyl}-5-fluoropiperidin-3-amine] | 501 nM |
| COc1cc(C(=O)N2C[C@H](N)C[C@@H](F)C2)cc2nc(-c3cc4cccnc4n3CC3CC3)n(Cc3ccn(C)n3)c12 [Example 516, (3R,5R)-1-{2-[1-(cyclopropylmethyl)-1H-pyrrolo[2,3-b]pyridin-2-yl]-7-methoxy-1-[(1-methyl-1H-pyrazol-3-yl)methyl]-1H-1,3-benzodiazole-5-carbonyl}-5-fluoropiperidin-3-amine] | 574 nM |
| Cn1cc(Cn2c(-c3cc4ccccc4n3CC3CC3)nc3cc(C(=O)N4C[C@H](N)C[C@@H](F)C4)cc(Cl)c32)cn1 [Example 517, (3R,5R)-1-{7-chloro-2-[1-(cyclopropylmethyl)-1H-indol-2-yl]-1-[(1-methyl-1H-pyrazol-4-yl)methyl]-1H-1,3-benzodiazole-5-carbonyl}-5-fluoropiperidin-3-amine] | 590 nM |
| COc1cc(C(=O)N2C[C@H](N)C[C@@H](F)C2)cc2nc(-c3cc4cccnc4n3CC3CC3)n(Cc3ccnn3C)c12 [Example 518, (3R,5R)-1-{2-[1-(cyclopropylmethyl)-1H-pyrrolo[2,3-b]pyridin-2-yl]-7-methoxy-1-[(1-methyl-1H-pyrazol-5-yl)methyl]-1H-1,3-benzodiazole-5-carbonyl}-5-fluoropiperidin-3-amine] | 606 nM |
| COc1cc(C(=O)N2CC3CCC2[C@@H]3N)cc2nc(-c3cc4ccc(C(C)O)cc4n3CC3CC3)n(CC3CN(C(=O)c4ccccc4)C3)c12 (stereo partly drawn) [Example 521, l-(2-{5-[(7R)-7-amino-2-azabicyclo[2.2.1]heptane-2-carbonyl]-1-[(1-benzoylazetidin-3-yl)methyl]-7-methoxy-1H-1,3-benzodiazol-2-yl}-1-(cyclopropylmethyl)-1H-indol-6-yl)ethan-1-ol] | 86 nM |
| COc1cc(C(=O)N2CC3CCC2[C@@H]3N)cc2nc(-c3cc4ccc(Br)cc4n3CC3CC3)n(Cc3cnn(C)c3)c12 (stereo partly drawn) [Example 522, (7R)-2-{2-[6-bromo-1-(cyclopropylmethyl)-1H-indol-2-yl]-7-methoxy-1-[(1-methyl-1H-pyrazol-4-yl)methyl]-1H-1,3-benzodiazole-5-carbonyl}-2-azabicyclo[2.2.1]heptan-7-amine] | 23 nM |
| COc1cc(C(=O)N2CC3CCC2[C@@H]3N)cc2nc(-c3cc4ccc(C(C)O)cc4n3CC3CC3)n(CC3CN(C(=O)c4ccc(C#N)cc4)C3)c12 (stereo partly drawn) [Example 523, 4-[3-({5-[(7R)-7-amino-2-azabicyclo[2.2.1]heptane-2-carbonyl]-2-[1-(cyclopropylmethyl)-6-(1-hydroxyethyl)-1H-indol-2-yl]-7-methoxy-1H-1,3-benzodiazol-1-yl}methyl)azetidine-1-carbonyl]benzonitrile] | 34 nM |
